Results reported in article PMC8227162 (Molecules, 2021).
“Also recorded” adds a separate entry of the source. Structures can show the parent of a compound that is named as a salt.

What was measured:
MDA-MB-468 cells = assay: SRB cytotoxicity assay, MDA-MB-468 cells; format: cell-based; settings: Homo sapiens, 48 h incubation (Figure 3 legend: 72 h)
Method: (§1) MDA-MB-231, MDA-MB-468, 4T1, and MCF7 cell lines were purchased from American Type Culture Collection (ATCC) (Manassas, VA, USA). RPMI medium supplemented with 5% fetal bovine serum (FBS) was used to culture the cell lines while being maintained in a humidified atmosphere at 37 °C, 5% CO2.
(§2) Cytotoxicity was assessed after 48 h incubation using sulforhodamine B (SRB) assay as described previously. Cells were fixed using 10% trichloroacetic acid and stained with SRB. The cytotoxicity experiments were performed in triplicate (n = 3). The 50% growth inhibition (IC50) was then assessed by using SRB assay after 48 h incubation. Data are represented as the mean ± SD of three independent experiments of each cell line.

MDA-MB-231 cells = assay: SRB cytotoxicity assay, MDA-MB-231 cells; format: cell-based; settings: Homo sapiens, 48 h incubation (Figure 3 legend: 72 h)
Method: as §1, §2

[1] = test system: MDA-MB-231, MDA-MB-468, 4T1, and MCF7 cells; assay: SRB cytotoxicity assay, all four breast cancer cell lines; format: cell-based; settings: over the four breast cancer cell lines; read-out: IC50 span over all treatments
Method: as §1, §2

4T1 tumors = assay: In vivo antitumor effects in 4T1 tumor-bearing Balb/c mice; settings: 3 mg/kg (TFA equivalent) IV, 9-day treatment
Method: Female Balb/c mice (6–12 weeks old, mean weight = 20–25 g) were supplied by the Laboratory Animal Care Facility of the Arabian Gulf University (AGU), Bahrain. […] All animal experiments were performed based on the rules and regulations of the Arabian Gulf University Animal Care Policy and approved by the Research and Ethics Committee, REC Approval No: G-E001-PI-12/16.
To propagate the tumor, female Balb/c mice (n = 3) were injected with one million 4T1 mammary carcinoma cells bilaterally (right and left side) on the flanks. The tumor was then collected and cut down into small pieces with an average size of 1–3 mm^3 in sterile PBS to sustain tumor viability. Following this, 5 mice of each group were shaved, anesthetized, and inoculated with one small piece of the 4T1 tumor tissue subcutaneously. […] The first day of drug administration was set as Day 0. Tumor volume was measured by a manual caliber, and the volume was estimated by using the formula:V (mm^3) = ((transverse section (W)^2 × longitudinal cross section (L))/2)
Tumor volumes were normalized by using the initial tumor volume and represented as the mean ± standard error of the mean (SEM). Additionally, the body weight of mice was measured every day and normalized daily for 9 days.

murine bone marrow cells = test system: murine bone marrow cells; parameters: method as in PMID 12110316; settings: cited from earlier work
MCF7 cells = assay: SRB cytotoxicity assay, MCF7 cells; format: cell-based; settings: Homo sapiens, 48 h incubation (Figure 3 legend: 72 h)
Method: as §1, §2

4T1 cells = assay: SRB cytotoxicity assay, 4T1 cells; format: cell-based, murine; settings: Mus musculus, 48 h incubation (Figure 3 legend: 72 h)
Method: as §1, §2

## COc1cc2cc(C(=O)N3CC(CCl)c4c3cc(O)c3ccoc43)[nH]c2c(OC)c1OC (stereo not shown) [TFA, tafuramycin A]
MDA-MB-468 cells
  IC50: 18.3 nM
MDA-MB-231 cells
  IC50: 4.6 nM
[1]
  IC50: 4.55 to 20.2 nM
4T1 tumors
  Body weight changes: not associated with any statistically significant weight loss; also recorded: no significant weight loss
Murine bone marrow cells
  Toxicity against murine bone marrow cells: only mild toxicity
MCF7 cells
  IC50: 4.55 nM
4T1 cells
  IC50: 5.9 nM
